# From patent publication US4891432A, “Phenoxy imidazole compound” (Yamanouchi Pharmaceutical Co., Ltd., priority 1986, dated 1990)
# Read-outs that look alike come from different tables or passages of the source.
# Legend:
# [1] = test system: mouse mammalian MM-46 tumor; test: Test 3: Test against mouse mammalian MM-46 tumor; format: in vivo, C3H/He/SLC mice
# Protocol: Test against mouse mammalian MM-46 tumor
# MM-46 tumor cells, 1×10^6, on day 6 after intraperitonal transplantation to C3 H/He/SLC mice, were intraperitoneally transplanted to C3H/He/SlC mice (6 week age, male)--10 mice to a group. The active component was orally administered in a definite dose 24 hours after the transplantation according to the schedule shown in Table 2. The tumor growth inhibition was evaluated as the percentage of the median survival day of the administered group versus that of the control group, according to the following equation.
# T: median survival day of the administered group
# C: median survival day of the control group
# mouse M5076 solid tumor = test: Test 4: Anti-tumor test against mouse M5076 solid tumor; format: in vivo, BDF1/SLC mice; details: p.o. (1-9 days), day 14
# Protocol: Anti-tumor test against mouse M5076 solid tumor
# M5076 Tumor cells, 1×10^6, on day 14 after intraperitoneal transplantation to C57BL16/cRJ mice, were subcutaneously transplanted to the left abdomen of BDF1/SLC mice (8 week age, male)--10 mice to a group (20 mice for the control group). The active component was orally administered in a definite dose 24 hours after the transplantation according to the schedule shown in Table 3. The tumor growth inhibition was assessed by measuring the weight of each tumor on days 14 after the transplantation, and determining the tumor growth inhibition rate of the active component-administered group to the control group, according to the following equation.
# (§1) Growth inhibition rate (%)=(C-T)/C×100
# (§2) T: mean tumor weight in the active-component-administered group
# (§3) C: mean tumor weight on the control group
# Ehrlich solid tumor [2] = test: Test 2: Anti-tumor test against Ehrlich solid tumor; format: in vivo, ddY/SLC mice; details: Mus musculus, Ehrlich, ip, 504 h, read-out: Growth Inhibition Rate
# Protocol: Anti-tumor test against Ehrlich solid tumor
# Ehrlich tumor cells, 2×10^6, on Day 7 after intraperitoneal transplantation to ddY/SLC mice, were subcutaneously transplanted in the left abdomen of ddY/SLC mice (5week age, male)--10 to a group. The active component was intraperitoneally administered in a definite dose 24 hours after the transplantation. (administration: once per one day; 1 through 9 days)
# as §1
# T: mean tumor weight in the active component-administered group
# c: mean tumor weight in the control group
# Ehrlich solid tumor [3] = test: Test 5: Antitumor test against Ehrlich solid tumor; format: in vivo, ddY/SLC mice; details: intraperitoneal (1 to 9 days), day 21
# Protocol: Antitumor test against Ehrlich solid tumor
# Ehrlich tumor cells, 3×10^6, on Day 6 after intraperitoneal transplantation to ddY/SLC mice, were subcutaneously transplanted in the left abdomen of ddY/SLC mice (5 week age, male)--10 mice to a group (37 mice for the control group). The active component was intraperitoneally administered in a definite dose 24 hours after the transplantation, according to the scheduled shown in Table 4. The tumor growth inhibition was assessed by measuring the weight of each tumor on the 21th day after transplantation, and determining the tumor growth inhibition rate of the active component-administered group to the control group, according to the following equation.
# as §1, §2, §3
# [4] = test system: mouse leukemia L1210 cells; test: Effectiveness against mouse leukemia L1210 cells (in vitro test), cytotoxicity by trypan blue dye exclusion; format: cell-based; details: Mus musculus, read-out: IC50 (mean dose producing 50%-killing of tumor cells)
# Protocol: Effectiveness against mouse leukemia L1210 cells (in vitro test)
# A suspension of cells in culture medium was transferred into wells in a microplate in an amount of 1×10^5 L1210-cells/well. Test sample diluted with a culture medium was added to the suspension in each well, and the mixture was incubated on the medium at 37° C. for 3 days in an atmosphere of air containing 5% carbon dioxide.
# Thereafter, the incubated cells were recovered from the microplate and the number of live cells was counted by the dye exclusion test using a 0.5% solution of trypan blue and by using a hemocytometer.
# ddY mice = test: Toxicity test (acute toxicity); format: in vivo; details: intraperitoneal, up to a dose of 800 mg/kg
# Protocol: (§4) The active component (the Compound of Example 45) was orally administered to ddY mice (mean body weight of 30 g, male). […] Accordingly, the acute toxicity of the Compound is greater than 1,600 mg/kg (oral administration).
# (§5) Accordingly, the acute toxicity of the Compound in the case of intraperitoneal administration is greater than 800 mg/kg.
# [5] = Toxicity test (acute toxicity); format: in vivo; details: mouse, in vivo, male ddY mice
# Protocol: as §4, §5
structure (smiles),measurement,setting,value
"O=c1[nH]c(=O)n(C2CCCO2)cc1F (stereo not drawn) [Tetrahydrofuryl-5-fluorouracil, reference compound]",Median Survival Day,"[1]; 100 mg/kg, p.o. (1-6 days)",6.0 days
same,No. of 20-day Survivors,"[1]; 100 mg/kg, p.o. (1-6 days)",0/10
same,T/C (median survival),"[1]; 100 mg/kg, p.o. (1-6 days)",85.7%
same,Median Survival Day,"[1]; 200 mg/kg, p.o. (1-6 days)",7.0 days
same,No. of 20-day Survivors,"[1]; 200 mg/kg, p.o. (1-6 days)",0/10
same,T/C (median survival),"[1]; 200 mg/kg, p.o. (1-6 days)",100%
same,Growth Inhibition Rate,mouse M5076 solid tumor; 100 mg/kg,14.8%
same,Weight of Tumor,mouse M5076 solid tumor; 100 mg/kg,0.52 ± 0.19 g
same,Growth Inhibition Rate,mouse M5076 solid tumor; 200 mg/kg,39.3%
same,Weight of Tumor,mouse M5076 solid tumor; 200 mg/kg,0.37 ± 0.08 g
"O=c1[nH]cc(F)c(=O)[nH]1 [5-Fluorouracil, reference compound]",inhibition in vivo at 25 mg/kg,Ehrlich solid tumor [2],61%
same,Growth Inhibition Rate,Ehrlich solid tumor [3]; 12.5 mg/kg,36.4%
same,Weight of Tumor,Ehrlich solid tumor [3]; 12.5 mg/kg,2.55 ± 1.21 g
same,Growth Inhibition Rate,Ehrlich solid tumor [3]; 25 mg/kg,45.6%
same,Weight of Tumor,Ehrlich solid tumor [3]; 25 mg/kg,2.18 ± 0.96 g
same,IC50,"[4]; L1210, 72 h",0.41 µM
"CC(C)(CCCCOc1ccc(OCCCCCn2ccnc2)cc1)C(=O)O [Example 45, 6-[p-[5-(1-imidazolyl)pentyloxy]phenoxy]-2,2-dimethylhexanoic acid]",Median Survival Day,"[1]; 100 mg/kg, p.o. (1-6 days)",8.0 days
same,No. of 20-day Survivors,"[1]; 100 mg/kg, p.o. (1-6 days)",0/10
same,T/C (median survival),"[1]; 100 mg/kg, p.o. (1-6 days)",114.3%
same,Median Survival Day,"[1]; 200 mg/kg, p.o. (1-6 days)",8.0 days
same,No. of 20-day Survivors,"[1]; 200 mg/kg, p.o. (1-6 days)",0/10
same,T/C (median survival),"[1]; 200 mg/kg, p.o. (1-6 days)",114.3%
same,Median Survival Day,"[1]; 400 mg/kg, p.o. (1-6 days)",8.0 days
same,No. of 20-day Survivors,"[1]; 400 mg/kg, p.o. (1-6 days)",0/10
same,T/C (median survival),"[1]; 400 mg/kg, p.o. (1-6 days)",114.3%
same,Median Survival Day,"[1]; 800 mg/kg, p.o. (1-8 days)",10.0 days
same,No. of 20-day Survivors,"[1]; 800 mg/kg, p.o. (1-8 days)",0/10
same,T/C (median survival),"[1]; 800 mg/kg, p.o. (1-8 days)",142.9%
same,Growth Inhibition Rate,Ehrlich solid tumor [3]; 50 mg/kg,29.9%
same,Weight of Tumor,Ehrlich solid tumor [3]; 50 mg/kg,2.81 ± 1.55 g
same,Growth Inhibition Rate,Ehrlich solid tumor [3]; 100 mg/kg,49.1%
same,Weight of Tumor,Ehrlich solid tumor [3]; 100 mg/kg,2.04 ± 1.26 g
same,Growth Inhibition Rate,Ehrlich solid tumor [3]; 200 mg/kg,63.6%
same,Weight of Tumor,Ehrlich solid tumor [3]; 200 mg/kg,1.46 ± 0.50 g
same,Growth Inhibition Rate,Ehrlich solid tumor [3]; 400 mg/kg,57.6%
same,Weight of Tumor,Ehrlich solid tumor [3]; 400 mg/kg,1.70 ± 0.60 g
same,Growth Inhibition Rate,mouse M5076 solid tumor; 100 mg/kg,13.1%
same,Weight of Tumor,mouse M5076 solid tumor; 100 mg/kg,0.53 ± 0.09 g
same,Growth Inhibition Rate,mouse M5076 solid tumor; 200 mg/kg,19.7%
same,Weight of Tumor,mouse M5076 solid tumor; 200 mg/kg,0.49 ± 0.14 g
same,Growth Inhibition Rate,mouse M5076 solid tumor; 400 mg/kg,11.5%
same,Weight of Tumor,mouse M5076 solid tumor; 400 mg/kg,0.54 ± 0.12 g
same,Growth Inhibition Rate,mouse M5076 solid tumor; 800 mg/kg,23.0%
same,Weight of Tumor,mouse M5076 solid tumor; 800 mg/kg,0.47 ± 0.09 g
same,IC50,"[4]; 72 h, L1210 cells, 3 days, 37° C.",42.5 µM
same,death,ddY mice,no example of death was noted
same,LD50,"[5]; ip, intraperitoneal administration",> 800 mg/kg
same,LD50,[5]; oral administration,> 1600 mg/kg
